Several values for one entry are separate records, joined by “and”; a condition that tells them apart may be missing. Equal entries are not always repeated.
Legend:
[1] = test system: PC3/AR and PC3/neo cells; details: 3 h treatment / over time
Protocol: The fluorescence of doxorubicin can be monitored in order to determine the rate of uptake and intracellular distribution of the anthraquinone fluorophore.
This cell suspension was dispensed in 2 mL aliquots into 6-well tissue culture plates. Plates were then incubated for 36 h at 37° C. in a humidified atmosphere of 5% CO2 and 95% air. The medium was replaced with 1 mL of phenol red-free RPMI 1640 growth medium supplemented with 10% dextran-coated charcoal stripped FBS prior to addition of the test compound. The appropriate compound was dissolved in DMSO and the concentration was adjusted to 50-200 μM by measuring the solution absorbance at 480 nm. Addition of 10 μL of the appropriate doxorubicin or prodrug solution was followed by incubation at 37° C. as indicated. The drug solution in individual wells was removed at the appropriate time and the cells were washed with 1 mL of the phenol red-free growth medium. The washed cells were then supplemented with 1 mL of phenol-red free growth medium for imaging.

[2] = cell line not stated; cited from earlier work
[3] = test system: Rtx-6 cells; assay: Uptake and estradiol competition by flow cytometry; format: cell-based
Protocol: The uptake and release in Rtx-6 cells were also investigated. Rtx-6 cells were treated with DOX, DOXSF, or DOX-TEG-TAM as described above to determine both the uptake and the release of drug following a 1 h treatment. DOX-TEG-TAM was taken up to a greater extent than DOX (>3-fold) and DOXSF (>2-fold). The enhanced uptake relative to DOX and DOXSF could be attributed to the presence of ER and the lipophilicity of DOX-TEG-TAM. The uptake of DOX-TEG-TAM in Rtx-6 cells is perhaps best compared to the uptake in the parent MCF-7 cell line. DOX-TEG-TAM was taken up to a greater extent in MCF-7 cells (25 RFU) relative to Rtx-6 cells (14 RFU). One possible explanation for this difference is the presence of both AEBS and ER in MCF-7 cells versus only ER in Rtx-6 cells. […] No further inhibition occurs at higher concentrations, possibly because of non-specific binding of DOX-TEG-TAM at hydrophobic sites in Rtx-6 cells.
(§1) Uptake and release of DOX, DOXSF, and DOX-TEG-TAM: The uptake and release of DOX-TEG-TAM in breast cancer cells relative to DOX and untargeted DOXSF was performed as described with modifications. Breast cancer cells in log phase growth were dissociated with trypsin-EDTA, counted, resuspended in media at 1.5×10^5 cells/mL, and plated into six well plates (450,000 cells/well) and allowed to adhere overnight. The cells were treated with 0.5 μM DOX, DOXSF, or DOX-TEG-TAM for various amounts of time (20 min, 40 min, and 60 min). Drug treatment was accomplished by addition of 30 μL of 100× drug solution (50 μM) to 3 mL of media which was mixed and immediately added to the cells. For each time point, the media was removed, cells were trypsinized, and trypsinization was quenched with 3 mL phenol red-free RPMI 1640 media (no serum) at 4° C. Cells were pelleted by centrifugation at 300 g for 5 min at 10° C. The supernatant was decanted and the cells were re-suspended in 1 mL serum- and phenol red-free RPMI 1640 media and placed on ice.
(§2) The extent of drug uptake and retention was measured by flow cytometry. Cells were analyzed with excitation at 488 nm (15 mW Ar ion laser), with emission monitored between 570 and 600 nm. Instrument settings were optimized for each cell line and held constant for all experiments; 10,000 cells were analyzed for anthracycline fluorescence. The data are presented as the mean fluorescence for each condition with the background, drug-free cell fluorescence subtracted.
The cell samples were prepared and analyzed by flow cytometry as described above.

[4] = test system: MDA-MB-231 cells; assay: Uptake and release by flow cytometry; format: cell-based, human
Source text: Additionally, uptake and release data were obtained for DOX, DOXSF, and DOX-TEG-TAM in estrogen receptor-negative MDA-MB-435 and MDA-MB-231 cells. In both cell lines DOX-TEG-TAM was also taken up to a much greater extent than DOX and DOXSF. In MDA-MB-435 cells DOX-TEG-TAM was taken up 3-fold and 5-fold more than DOXSF and DOX, respectively. In MDA-MB-23 1 cells DOX-TEG-TAM was taken up 2-fold and 6-fold more than DOXSF and DOX, respectively.
as §1
For drug retention samples, the cells were treated for 1 h with 0.5 μM DOX, DOXSF, or DOX-TEG-TAM. Following drug treatment, the media was removed and replaced with 3 mL fresh, 37° C., full (containing serum and phenol red indicator) cell media and the cells were incubated for various times (0.5 h, 1 h, 3 h, and 6 h). Following the allotted release times, the cells were prepared as described above. Drug treatment was performed such that all cell samples would be prepared within 2 h.
as §2

[5] = Hydrolysis and stability of DOX-TEG-TAM; format: physicochemical
Protocol: Results: Hydrolysis and stability. A standard solution of DOX-TEG-TAM (11c) in dimethylsulfoxide (DMSO) containing 1% v/v acetic acid (AcOH) was diluted 1:100 in two different buffers: lysis buffer (pH 7.4, 10 mM Tris, 1.5 mM EDTA, 10 mM Na2MoO4) used for binding experiments or TE buffer (pH 7.6, 10 MM Tris, 1 mM EDTA). Samples incubated at 37° C. and 4° C. were monitored by HPLC to detect the loss of intact targeted drug and the formation of doxorubicin. The hydrolysis data was fit using first-order reaction kinetics to provide first-order rate constants; the hydrolysis half-life was then calculated using t1/2=ln2/k.
The DOX-TEG-TAM was diluted 1:100 in either pH 7.6 TE buffer (10 mM tris, 1 mM EDTA buffer) or pH 7.4 lysis buffer (10% v/v glycerol, 10 mM Tris, 1.5 mM EDTA, 10 mM Na2MoO4). A sample of each buffer was kept at 37° C. and 4° C. and monitored by HPLC using Method #2 (described above) to track the loss of DOX-TEG-TAM and the subsequent formation of doxorubicin. The area-under-the-curve (AUC) was used to calculate the percentage of intact material versus time. The hydrolysis data were fit to first-order kinetics using Regression (Blackwell Scientific Publishing, London) software. The reaction rate constants were 0.012±0.0007 min^−1 (pH 7.6) and 0.0092±0.0003 min^−1 (pH 7.4) at 37° C.; 0.0058±0.0005 h^−1 (pH 7.6) and 0.0038±0.0003 h^−1 ([…]) at 4° C. The half-life for hydrolysis was then calculated from the rate constants using t1/2=ln2/k.

SMILES	intracellular distribution of fluorescence over time [1]	IC50 [2]	fold uptake greater than DOX ([3]; Rtx-6) [fold]	fold uptake greater than DOXSF ([3]; Rtx-6) [fold]	inhibition of uptake by estradiol ([3]; Rtx-6, 0.5 μM drug, 20 nM estradiol) [%]	drug uptake (DOX fluorophore) ([3]; Rtx-6, 1 h treatment) [RFU]	fold uptake more than DOX ([4]; MDA-MB-231) [fold]	fold uptake more than DOXSF ([4]; MDA-MB-231) [fold]	uptake relative to MDA-MB-435 cells ([4]; MDA-MB-231, 1 h, 500 nM)	fluorophore retention vs DOXSF or DOX ([4]; MDA-MB-231, after 1 h treatment with 500 nM)	reaction rate constant ([5]; pH 7.4, 37° C.) [min⁻¹]	reaction rate constant ([5]; pH 7.5, 4° C.) [min⁻¹]	reaction rate constant ([5]; pH 7.6, 4° C.) [min⁻¹]	reaction rate constant ([5]; pH 7.6, 37° C.) [min⁻¹]
COc1cccc2c1C(=O)c1c(O)c3c(c(O)c1C2=O)C[C@@](O)(C(=O)CO)C[C@@H]3O[C@H]1C[C@H](NCNC(=O)c2ccccc2O)[C@H](O)[C@H](C)O1 [doxsaliform, N-(2-Hydroxybenzamido-methyl)-doxorubicin]	exclusive nuclear accumulation of fluorescence	0.06 µM and 0.05 µM	–	–	–	–	–	–	–	–	–	–	–	–
CC/C(=C(/c1ccc(O)cc1)c1ccc(OCCN(C)CCOCCOCCO/N=C/c2ccc(O)c(C(=O)NCN[C@H]3C[C@H](O[C@H]4C[C@](O)(C(=O)CO)Cc5c(O)c6c(c(O)c54)C(=O)c4c(OC)cccc4C6=O)O[C@@H](C)[C@H]3O)c2)cc1)c1ccccc1 [11c, E/Z-N-(2-Hydroxy-5-{[2-(2-{2-[(2-{4-[1-(4-hydroxy-phenyl)-2-phenyl-but-1-enyl]-phenoxy}-ethyl)-methyl-amino]-ethoxy}-ethoxy)-ethoxyimino]-methyl}-benzamide)-doxorubicin]	–	–	> 3	> 2	70	14	6	2	about 25%	retained to a greater extent	0.0092 ± 0.0003	6.33e-05 ± 5e-06	9.67e-05 ± 8.3e-06	0.012 ± 0.0007

— patent US20070275911A1, “Targeted Drug-Formaldehyde Conjugates and Methods of Making and Using the Same” (priority 2003, published 2007)
